Residue numbers refer to the chain shown, from its start.
Tests used:
UGDH S316A [1] = molecular target: T1, UGDH S316A (Homo sapiens, UniProt O60701, S316A); experiment: UDP-Xyl inhibition of the catalytic reaction, UGDH S316A; type: biochemical; conditions: sub-saturating UDP-Glc and NAD+, read-out: UDP-Xylose IC50
T1 construct: six-histidine; made in house; host or cells: E. coli BL21(DE3)
T1 sequence (O60701 1-494 S316A): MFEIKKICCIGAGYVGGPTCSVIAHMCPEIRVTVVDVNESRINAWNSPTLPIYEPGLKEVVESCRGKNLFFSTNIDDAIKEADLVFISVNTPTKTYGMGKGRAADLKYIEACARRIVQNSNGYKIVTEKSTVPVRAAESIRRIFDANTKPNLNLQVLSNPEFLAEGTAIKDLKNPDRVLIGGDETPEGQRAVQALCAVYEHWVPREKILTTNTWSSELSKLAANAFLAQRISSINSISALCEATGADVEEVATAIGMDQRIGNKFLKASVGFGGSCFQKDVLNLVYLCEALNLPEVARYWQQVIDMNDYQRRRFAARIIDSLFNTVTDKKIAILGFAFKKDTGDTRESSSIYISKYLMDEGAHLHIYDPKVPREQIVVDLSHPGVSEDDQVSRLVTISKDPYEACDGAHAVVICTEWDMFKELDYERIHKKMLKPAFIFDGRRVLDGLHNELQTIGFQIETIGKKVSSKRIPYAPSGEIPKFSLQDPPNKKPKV
Description: (§1) Finally, we tested whether the S316 point mutants impacted inhibition of UGDH by UDP-xylose (UDP-Xyl), which is an endogenous competitive inhibitor of UGDH with nM affinity that causes a conformational change in the crystal structure exposing one of the dimer interfaces. We measured the concentration dependence of UDP-Xyl inhibition in the context of the catalytic reaction at sub-saturating UDP-Glc and NAD^+ and used the resultant curves to calculate the IC50 for UGDH S316A and S316D (Table 1). […] Binding of UDP-Xyl to UGDH independently of catalysis was measured by ITC. […]
(§2) Purified S316 mutants were compared to the UGDH WT enzyme using the following approaches as previously described. Enzymatic activity was evaluated by steady state kinetics in the presence and absence of the endogenous inhibitor UDP-Xylose to compare Michaelis constants and IC50 values. Intrinsic stability was assessed by thermal denaturation and quaternary structure was determined by size exclusion chromatography. Binding of UDP-Xylose to recombinant UGDH and mutants was measured by isothermal titration calorimetry using the MicroCal PEAQ-ITC (Malvern Panalytical). […] Binding heats were corrected for the heat of dilution and analyzed using the MicroCal PEAQ-ITC Analysis Software, employing a single-site binding model to determine Kd values.

UGDH WT [2] = molecular target: T2, UGDH WT (Homo sapiens, UniProt O60701); experiment: isothermal titration calorimetry, UDP-Xylose binding to UGDH WT; conditions: ITC, single-site binding model
T2 construct: six-histidine; made in house; host or cells: E. coli BL21(DE3)
T2 sequence (O60701 1-494): T1 sequence (O60701 1-494 S316A) with A316S
Description: as §1, §2

[3] = molecular target: T3, UGDH S316 phosphorylation by RSK2, S6K1, SGK1 (Homo sapiens, UniProt O60701); experiment: in vitro kinase assay, phosphorylation of UGDH S316; type: biochemical; conditions: in vitro kinase assays with RSK2, S6K1, SGK1; data not shown
T3 construct: made in house
T3 sequence (O60701 1-494): T1 sequence (O60701 1-494 S316A) with A316S
Method: Due to the location of UGDH S316 at the dimeric interface, we tested whether UGDH oligomeric status influenced the ability of each kinase to phosphorylate UGDH S316. In vitro kinase assays were performed to compare phosphorylation of UGDH S316 in the WT enzyme versus the UGDH T325D obligate dimer mutant. All three kinases produced a phosphorylation band in the dimeric UGDH T325D as expected.
Recombinant UGDH (100 μg) was incubated for 2 h at 30 °C with 1 μg of each kinase and either activated by addition of ATP (200 μM) or a conjugatable ATP analogue, γ-[(6-Azidohexyl)-imido]-ATP. Phosphorylated UGDH was detected by western analysis (using anti-pAkT substrate antibody) or by SDS-PAGE following reaction with tetramethylrhodamine (TAMRA) alkyne, copper, THPTA, and sodium ascorbate.

UGDH S316D [4] = molecular target: T4, UGDH S316D (Homo sapiens, UniProt O60701, S316D); experiment: isothermal titration calorimetry, UDP-Xylose binding to UGDH S316D; conditions: ITC
T4 construct: six-histidine; made in house; host or cells: E. coli BL21(DE3)
T4 sequence (O60701 1-494 S316D): T1 sequence (O60701 1-494 S316A) with A316D
Description: as §1, §2

UGDH S316D [5] = molecular target: T4, UGDH S316D; experiment: UDP-Xyl inhibition of the catalytic reaction, UGDH S316D; type: biochemical; conditions: sub-saturating UDP-Glc and NAD+, read-out: UDP-Xylose IC50
Description: as §1, §2

UGDH WT [6] = molecular target: T2, UGDH WT; experiment: UDP-Xyl inhibition of the catalytic reaction, UGDH WT; type: biochemical; conditions: sub-saturating UDP-Glc and NAD+, read-out: UDP-Xylose IC50
Description: as §1, §2

UGDH S316A [7] = molecular target: T1, UGDH S316A; experiment: isothermal titration calorimetry, UDP-Xylose binding to UGDH S316A; conditions: ITC, single-site binding model
Description: as §1, §2

O=c1ccn([C@@H]2O[C@H](COP(=O)(O)OP(=O)(O)O[C@H]3OC[C@@H](O)[C@H](O)[C@H]3O)[C@@H](O)[C@H]2O)c(=O)[nH]1 [UDP-Xylose]
IC50 (UGDH S316A [1]): 250 ± 60 nM | Kd (UGDH WT [2]): 91 ± 35 nM | effect of UDP-Xyl on phosphorylation of UGDH S316 [3]: did not impact phosphorylation | Kd for UGDH S316D relative to Kd values for UGDH WT and S316A (UGDH S316D [4]; higher for S316D): ≈ 2 fold | Kd (UGDH S316D [4]; UGDH S316D, single-site binding model): 150 ± 30 nM | IC50 (UGDH S316D [5]): 250 ± 30 nM | IC50 (UGDH WT [6]): 220 ± 50 nM | Kd (UGDH S316A [7]): 71 ± 20 nM

Source: paper PMC13330650 (Matrix biology : journal of the International Society for …, 2025)
